Measurements reported in US5635594A, “Gallinacins - antibiotic peptides” (University of California, Los Angeles, priority 1994, dated 1997).
Where no end group is shown, it is not given here.

system: Candida albicans strain 820; assay: ultrasensitive radial diffusion assay in agarose gels, Candida; assay type: cell-based; conditions: underlay agar pH 7.4, overnight incubation, FIG. 5c
Protocol: Aliquots of these column fractions were dried by vacuum centrifugation, resuspended in a small volume (approximately 17 μl) of 0.01% HOAc and 5 μl samples were tested for antimicrobial activity against Escherichia coli ML-35, Listeria monocytogenes strain EGD and Candida albicans strain 820, by the ultrasensitive radial diffusion technique described by Lehrer, R. I. et al. J Immunol Meth (1991) 137:167-173. […] A 1 mm diameter clear zone around the sample well after overnight incubation corresponded to 10 units of microbicidal activity.
The radial diffusion assay in agarose gels described in Example 1 was also used to test the activity of the purified gallinacins. FIGS. 5a, 5b and 5c show the results against three test organisms in units described as above. Rabbit defensin (NP-1) and human defensin (HNP-1) were used as controls.

Substance	antifungal activity against Candida albicans
Gal1: 39-residue antimicrobial peptide isolated from chicken neutrophils, six cysteines in three intramolecular disulfide bonds	effective
Gal1α: antimicrobial peptide isolated from chicken neutrophils; differs from Gal1 only in positions 10, 20 and 32	effective
Gal2: 36-residue antimicrobial peptide isolated from chicken neutrophils, six cysteines in three intramolecular disulfide bonds (LFCKGGSCHFGGCPSHLIKVGSCFGFRSCCKWPWNA; not fully specified (residues 3, 8, 13, 23, 29, 30, bridges); also: native peptide: three intramolecular disulfides, pairing not given here)	relatively poor activity
